The values below come from the NIST ThermoML archive (doi:10.1016/j.fluid.2017.04.001).

Numbers after ± are expanded uncertainties.

This series can be described thus: wn = mass fraction of the nth substance listed. The following applies: 308.2 K, 101 kPa, Liquid, Cone and plate viscometry.

As for `C[C@H](N)C(=O)[O-].C[N+](C)(C)CCO` [2-hydroxy-N,N,N-trimethylethanaminium L-alaninate] + O, the viscosity (commonly the resistance of a fluid to flow) runs as follows: (w1 = 0.05) 0.87 ± 0.02 mPa·s; (w1 = 0.1) 0.98 ± 0.03 mPa·s; (w1 = 0.2) 1.32 ± 0.05 mPa·s; (w1 = 0.3) 1.92 ± 0.09 mPa·s.
As to `C[N+](C)(C)CCO.NCC(=O)[O-]` [2-hydroxy-N,N,N-trimethylethanaminium glycinate] + O, the viscosity runs as follows: (w1 = 0.05) 0.85 ± 0.02 mPa·s; (w1 = 0.1) 0.96 ± 0.03 mPa·s; (w1 = 0.2) 1.24 ± 0.04 mPa·s; (w1 = 0.3) 1.7 ± 0.07 mPa·s.
`C[N+](C)(C)CCO.O=C([O-])[C@@H]1CCCN1` [2-hydroxy-N,N,N-trimethylethanaminium L-prolinate] + O: the viscosity reads like this: (w1 = 0.05) 0.89 ± 0.02 mPa·s; (w1 = 0.1) 1.06 ± 0.03 mPa·s; (w1 = 0.2) 1.49 ± 0.06 mPa·s; (w1 = 0.3) 2.2 ± 0.11 mPa·s.
